Experimental data reported in US10487056B2, “Small molecule androgen receptor inhibitors and methods of use thereof” (GEORGETOWN UNIVERSITY, priority 2015, dated 2019).

Columns and labels:
Assay type in all cases: cell-based
AR [1] = assay: 22Rv1-ARE-luc androgen-response element luciferase reporter assay; conditions: range of doses, 24 hours
Protocol: VCaP and CWR22Rv1 (referred to as 22Rv1) cells were transduced with ARE-luciferase Cignal Lenti Pathway Reporter (Qiagen; Valencia, Calif.) and cultured as described above in the presence of 1 μg/mL puromycin. Following antibiotic selection, cells stably expressing ARE-luciferase were isolated, cloned and cultured to generate a stable ARE-reporter cell lines.

22Rv1 cells [2] = assay: MTT cell viability assay, 22Rv1 cells; conditions: 3 days
Protocol: Cells were treated in the manner indicated below for the specified period of time. MTT assay was performed as described in Amin et al., Mol. Cancer Ther., 13:341-52 (2014).
To determine the effects of SH-I-125 on prostate cancer cell growth, 22Rv1 cells were treated with SH-I-125 and cell viability was measured after a period of 3 days. […]. In comparison, non-tumorigenic primary prostate epithelial cells (PrEC) retained 80% viability in the presence of a similar range of doses of SH-I-125, showing that tumorigenic cells are more susceptible to the growth inhibitory properties of SH-I-125 compared to non-tumorigenic cells (FIG. 8B). […] Staurosporine was used as a positive control for cell death induction in live and dead assays (FIG. 9C).

22Rv1 cells [3] = assay: Caspase-Glo 3/7 activity assay, 22Rv1 cells; conditions: 3 days
Protocol: 22Rv1 cells were treated with SH-I-125 (1 μM) for one, two, or three days, and caspase 3/7 activity was measured using Caspase-Glo 3/7 substrates. […] Data represent mean of three independent experiments with quadruplicate samples; bars, SEM. ***, p value <0.001 determined by ANOVA.
(§1) Caspase 3/7 activity was measured using Caspase-Glo 3/7 substrates. Data represent mean of three independent experiments with quadruplicate samples; bars, SEM. ***, p value <0.001 determined by ANOVA.
[…]; Madison, Wis.).
. […] Staurosporine was used as a positive control for apoptosis induction (FIG. 10B).

VCaP cells = assay: Caspase-Glo 3/7 activity assay, VCaP cells; conditions: 3 days
Protocol: as §1

AR and AR-V7 = assay: Western blot of AR and AR-V7 levels in 22Rv1 cells; conditions: 3 days, SH-I-125 at 1 μM
Protocol: AR levels were assessed by Western blotting. β-actin was used as a loading control.
(§2) AR and AR-V7 levels were assessed. β-actin was used as a loading control.
as §2
MG132 (5 μM), a known proteasome inhibitor, was added on Day 2. AR expression was assessed by Western blotting. β-actin was used as a loading control.

VCaP-MDVR cells = assay: Cell viability (MTT), VCaP-MDVR cells; conditions: MDV3100, ARN-509 10 μM, SH-I-125 range, 3 days
Protocol: (§6) Cell viability was measured using the MTT assay.

22Rv1-MDVR cells = assay: Cell viability (MTT), 22Rv1-MDVR cells; conditions: MDV3100, ARN-509 10 μM, SH-I-125 range, 3 days
Protocol: as §6

AR [4] = assay: VCaP-MDVR-ARE-luc luciferase reporter assay; conditions: VCaP-MDVR-ARE-luc cells, range of doses, 24 hours
Protocol: (§3) […]. Luciferase activity was measured and plotted as a percentage of control. Data represent the mean of three independent experiments with quadruplicate samples; bars, SEM. ***, p value <0.001 determined by ANOVA.
(§4) VCaP-MDVR and 22Rv1-MDVR stably expressing ARE-luciferase construct (VCaP-MDVR-ARE-luc and 22Rv1-MDVR-ARE-luc) were generated as described above in the Materials and Methods section. […].

AR [5] = assay: 22Rv1-MDVR-ARE-luc luciferase reporter assay; conditions: 22Rv1-MDVR-ARE-luc cells, range of doses, 24 hours
Protocol: as §3, §4

AR [6] = assay: Immunofluorescence staining of AR in 22Rv1-MDVR cells; conditions: MDV3100 10 μM, ARN509 10 μM or SH-I-125 1 μM, 24 hours
Protocol: […]. AR and AR-V7 expression levels were assessed.
(§5) Immunofluorescence staining was performed as described in Amin et al., Mol. Cancer Ther., 13:341-52 (2014).

AR [7] = assay: Immunofluorescence staining of AR and PSA in VCaP-MDVR cells; conditions: DHT 1 nM, MDV3100 10 μM or SH-I-125 1 μM, 24 hours
Protocol: AR and PSA expression levels were assessed.
as §5

Row | Structure (SMILES) | inhibitory effect on ARE-luciferase activity (plateau) (AR [1]) [%] | prevention of growth compared with SH-I-125 (22Rv1 cells [2]) | caspase 3/7 activity (22Rv1 cells [3]) | caspase 3/7 activity (VCaP cells) | cellular AR and AR-V7 levels (AR and AR-V7) | cell growth / viability (VCaP-MDVR cells) | cell growth / viability (22Rv1-MDVR cells) | reduction of luciferase activity (AR [4]) [%] | luciferase activity (AR activity) (AR [5]) | AR nuclear localization (AR [6]) | AR expression / nuclear localization (AR [7]) | PSA expression (AR [7])
1 | CNC(=O)c1ccc(N2C(=S)N(c3cnc(C#N)c(C(F)(F)F)c3)C(=O)C23CCC3)cc1F [ARN-509] | 50 | significantly less effective | did not have a similar effect | did not have a similar effect | no effect | continued proliferation | continued proliferation | 50 | unchanged from control | unaffected |  | 
2 | CNC(=O)c1ccc(N2C(=S)N(c3ccc(C#N)c(C(F)(F)F)c3)C(=O)C2(C)C)cc1F [MDV3100] |  | significantly less effective | did not have a similar effect | did not have a similar effect | no effect | continued proliferation | continued proliferation | 50 | unchanged from control | unaffected | AR expression was not attenuated | continued to inhibit PSA expression
